How the values were obtained:
Format in all cases: in vivo
[1] = tested on: barnyardgrass (Echinochloa crus-galli); test: Test A greenhouse herbicide test, pre- and postemergence
Procedure, shortened: (§1)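 Seeds in loam–sand blend received a preemergence directed soil spray; plants at 2–10 cm, one- to two-leaf stage, received postemergence sprays. Compounds in a non-phytotoxic solvent with surfactant. After about 10 d in a greenhouse, injury rated visually versus untreated controls on a 0–100 scale (100 = complete control).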

corn (Zea mays) = test: as above; conditions: Postemergence; for Corn plant response rating: 0 to 100 scale, 0 is no effect, 100 is complete control
Procedure, shortened: as §1

[2] = tested on: foxtail, giant (giant foxtail, Setaria faberii); test: as above
Procedure, shortened: as §1

kochia (Kochia scoparia) = test: as above
Procedure, shortened: as §1

[3] = tested on: pigweed (Amaranthus retroflexus); test: as above
Procedure, shortened: as §1

[4] = tested on: ragweed (common ragweed, Ambrosia elatior); test: as above
Procedure, shortened: as §1

[5] = tested on: ryegrass, Italian (Italian ryegrass, Lolium multiflorum); test: as above
Procedure, shortened: as §1

[6] = tested on: wheat (Triticum aestivum); test: as above; conditions: Postemergence; for Wheat plant response rating: 0 to 100 scale, 0 is no effect, 100 is complete control
Procedure, shortened: as §1

[7] = tested on: blackgrass (Alopecurus myosuroides); test: Test A greenhouse herbicide test, postemergence; conditions: for Blackgrass plant response rating: 0 to 100 scale, 0 is no effect, 100 is complete control
Procedure, shortened: (§2)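 Visual injury score, 0 (no effect) to 100 (complete control), versus untreated controls roughly 10 d after postemergence spray; plants at one- to two-leaf stage, 2 to 10 cm tall, in loam soil and sand, kept in greenhouse.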

[8] = tested on: galium (catchweed bedstraw, Galium aparine); test: Test A greenhouse herbicide test, postemergence; conditions: for Galium plant response rating: 0 to 100 scale, 0 is no effect, 100 is complete control
Procedure, shortened: as §2

[9] = tested on: barnyardgrass (Echinochloa crus-galli); test: Test B flooded paddy test; conditions: 250 g ai/ha, Flood; visual rating on scale of 0 to 100 where 0 is no effect and 100 is complete control; 13 to 15 d after treatment
Procedure, shortened: (§3)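 Plants grown to the 2-leaf stage. At treatment, pots were flooded to 3 cm above the soil, compound was applied directly to the paddy water, and that depth was held throughout. After 13 to 15 d in the greenhouse, response was rated visually against controls on a 0 (no effect) to 100 (complete control) scale.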

[10] = tested on: ducksalad (Heteranthera limosa); test: Test B flooded paddy test; conditions: 250 g ai/ha, Flood; visual rating on scale of 0 to 100 where 0 is no effect and 100 is complete control; 13 to 15 d after treatment
Procedure, shortened: as §3

rice (Oryza sativa) = test: Test B flooded paddy test; conditions: 250 g ai/ha, Flood; visual rating on scale of 0 to 100 where 0 is no effect and 100 is complete control; 13 to 15 d after treatment
Procedure, shortened: as §3

[11] = tested on: sedge, umbrella (small-flower umbrella sedge, Cyperus difformis); test: Test B flooded paddy test; conditions: 250 g ai/ha, Flood; visual rating on scale of 0 to 100 where 0 is no effect and 100 is complete control; 13 to 15 d after treatment
Procedure, shortened: as §3

[12] = Postemergence, 125 g ai/ha, 0 to 100 scale where 0 is no effect and 100 is complete control
[13] = Postemergence, 500 g ai/ha, visual rating after approx. 10 d, 0 to 100 scale (0 no effect, 100 complete control)
[14] = Preemergence, 125 g ai/ha, 0 to 100 scale where 0 is no effect and 100 is complete control
[15] = Preemergence, 500 g ai/ha, 0 to 100 scale where 0 is no effect and 100 is complete control
[16] = 125 g ai/ha, 0 to 100 scale where 0 is no effect and 100 is complete control
[17] = 500 g ai/ha, visual rating after approx. 10 d, 0 to 100 scale (0 no effect, 100 complete control)
[18] = Postemergence, 500 g ai/ha, 0 to 100 scale, 0 is no effect, 100 is complete control
[19] = Preemergence, 500 g ai/ha, 0 to 100 scale, 0 no effect, 100 complete control

Compound | Plant response rating, Barnyardgrass [1, 12] | Barnyardgrass plant response rating [1, 14] | Plant response rating, Corn (corn (Zea mays); [16]) | Plant response rating, Foxtail, Giant [2, 12] | Foxtail, Giant plant response rating [2, 14] | Plant response rating, Kochia (kochia (Kochia scoparia); [12]) | Kochia plant response rating (kochia (Kochia scoparia); [14]) | Plant response rating, Pigweed [3, 12] | Pigweed plant response rating [3, 14] | Plant response rating, Ragweed [4, 12] | Plant response rating, Ryegrass, Italian [5, 12] | Plant response rating, Wheat [6, 16] | Plant response rating, Blackgrass [7, 16] | Plant response rating, Galium [8, 16] | Plant response rating, Barnyardgrass [9] | Plant response rating, Ducksalad [10] | Plant response rating, Rice (rice (Oryza sativa)) | Plant response rating, Sedge, Umbrella [11] | Barnyardgrass plant response rating [1, 18] | Corn plant response rating (corn (Zea mays); 500 g ai/ha) | other results
COC(=O)Oc1c(C)nn(C)c(=O)c1-c1c(C(F)(F)F)ccc2ccccc12 [Compound 149] | 20 | 0 | 20 | 40 | 30 | 80 | 40 | 90 | 100 | 90 | 70 | 20 | 30 | 90 | 0 | 0 | 0 | 0 |  |  | Plant response rating, Barnyardgrass [1, 13]: 20; Plant response rating, Barnyardgrass [1, 15]: 70; Plant response rating, Corn (corn (Zea mays); [17]): 30; Plant response rating, Foxtail, Giant [2, 13]: 80; Plant response rating, Foxtail, Giant [2, 15]: 90; Plant response rating, Kochia (kochia (Kochia scoparia); [13]): 100; Plant response rating, Kochia (kochia (Kochia scoparia); [15]): 90; Plant response rating, Pigweed [3, 13]: 100; Plant response rating, Pigweed [3, 15]: 100; Plant response rating, Ragweed [4, 13]: 90; Plant response rating, Ragweed [4, 15]: 90; Plant response rating, Ryegrass, Italian [5, 13]: 100; Plant response rating, Ryegrass, Italian [5, 15]: 90; Plant response rating, Wheat [6, 17]: 70; Plant response rating, Blackgrass [7, 17]: 70; Plant response rating, Galium [8, 17]: 100
CCOc1ccc2cccc(-c3c(O)c(C)nn(C)c3=O)c2c1 [Compound 92] | 0 | 0 | 0 | 0 | 0 | 60 | 0 | 20 | 0 | 0 | 0 | 0 | 0 | 10 | 0 | 0 | 0 | 40 | 0 | 0 | Plant response rating, Barnyardgrass [1, 15]: 0; Foxtail, Giant plant response rating [2, 18]: 0; Plant response rating, Foxtail, Giant [2, 15]: 0; Kochia plant response rating (kochia (Kochia scoparia); [18]): 70; Plant response rating, Kochia (kochia (Kochia scoparia); [15]): 20; Pigweed plant response rating [3, 18]: 30; Plant response rating, Pigweed [3, 15]: 0; Ragweed plant response rating [4, 18]: 0; Ragweed plant response rating [4, 14]: 0; Plant response rating, Ragweed [4, 15]: 0; Ryegrass, Italian plant response rating [5, 18]: 0; Ryegrass, Italian plant response rating [5, 14]: 0; Plant response rating, Ryegrass, Italian [5, 15]: 0; Wheat plant response rating ([6]; 500 g ai/ha): 0; Blackgrass plant response rating ([7]; 500 g ai/ha): 20; Galium plant response rating ([8]; 500 g ai/ha): 30
CCC(=O)Oc1c(C)nn(C)c(=O)c1-c1ccc(Cl)c2ccccc12 [Compound 62] | 70 | 50 | 10 | 80 | 50 | 100 | 90 | 100 | 100 | 100 | 100 | 0 | 70 | 100 | 20 | 20 | 0 | 75 | 90 | 30 | Plant response rating, Barnyardgrass [1, 19]: 90; Foxtail, Giant plant response rating [2, 18]: 90; Plant response rating, Foxtail, Giant [2, 19]: 90; Kochia plant response rating (kochia (Kochia scoparia); [18]): 100; Plant response rating, Kochia (kochia (Kochia scoparia); [19]): 90; Pigweed plant response rating [3, 18]: 100; Plant response rating, Pigweed [3, 19]: 100; Ragweed plant response rating [4, 18]: 100; Ragweed plant response rating [4, 14]: 70; Plant response rating, Ragweed [4, 19]: 90; Ryegrass, Italian plant response rating [5, 18]: 100; Ryegrass, Italian plant response rating [5, 14]: 100; Plant response rating, Ryegrass, Italian [5, 19]: 100; Wheat plant response rating ([6]; 500 g ai/ha): 50; Blackgrass plant response rating ([7]; 500 g ai/ha): 80; Galium plant response rating ([8]; 500 g ai/ha): 100
COc1ccc(-c2c(O)c(C)nn(C)c2=O)c2ccccc12 [Compound 58] | 0 | 0 | 0 | 0 | 0 | 20 | 20 | 0 | 0 | 0 | 60 | 0 | 20 | 70 | 0 | 0 | 0 | 0 | 0 | 0 | Plant response rating, Barnyardgrass [1, 19]: 20; Foxtail, Giant plant response rating [2, 18]: 10; Plant response rating, Foxtail, Giant [2, 19]: 0; Kochia plant response rating (kochia (Kochia scoparia); [18]): 90; Plant response rating, Kochia (kochia (Kochia scoparia); [19]): 80; Pigweed plant response rating [3, 18]: 20; Plant response rating, Pigweed [3, 19]: 20; Ragweed plant response rating [4, 18]: 60; Ragweed plant response rating [4, 14]: 70; Plant response rating, Ragweed [4, 19]: 80; Ryegrass, Italian plant response rating [5, 18]: 80; Ryegrass, Italian plant response rating [5, 14]: 70; Plant response rating, Ryegrass, Italian [5, 19]: 100; Wheat plant response rating ([6]; 500 g ai/ha): 20; Blackgrass plant response rating ([7]; 500 g ai/ha): 50; Galium plant response rating ([8]; 500 g ai/ha): 100
